Consider 8 compounds from patent publication US11950611B2, “Highly soluble Rebaudioside D” (PURECIRCLE SDN BHD, priority 2013, dated 2024).

The conditions of data set [1]: cited from earlier work.
Data set [2] is described as follows: Solubility of Rebaudioside D (crystalline vs amorphous) in water. Particulars: for water solubility: room temperature, g per 100 g solvent. The class given is physicochemical. On the procedure: Hereinafter, unless specified otherwise the solubility of material is determined in RO (reverse osmosis) water at room temperature. […] The solution was maintained at 50° C. and dried using a YC-015 laboratory spray drier (Shanghai Pilotech Instrument & Equipment Co. Ltd., China) operating at 175° C. inlet and 100° C. outlet temperatures.

For data set [3] the following is noted: room temperature, water; cited from earlier work.

With `C=C1C[C@@]23CC[C@H]4[C@@](C)(CCC[C@@]4(C)C(=O)O[C@@H]4O[C@H](CO)[C@@H](O)[C@H](O)[C@H]4O)[C@@H]2CC[C@]1(O[C@@H]1O[C@H](CO)[C@@H](O)[C@H](O[C@@H]2O[C@H](CO)[C@@H](O)[C@H](O)[C@H]2O)[C@H]1O[C@@H]1O[C@H](CO)[C@@H](O)[C@H](O)[C@H]1O)C3` [Form 4, Rebaudioside A], in data set [1], the “Rate of dissolution in H2O at 25° C. (in words)” value (from here on “Rate of dissolution … (in words)”) is “High” and the “Rate of dissolution in H2O at 25° C., amount dissolved in 5 minutes” value (shortened to “Rate of dissolution in H2O … in 5 minutes”) is “(>35% in 5”.

As to `C=C1C[C@@]23CC[C@H]4[C@@](C)(CCC[C@@]4(C)C(=O)O[C@@H]4O[C@H](CO)[C@@H](O)[C@H](O)[C@H]4O[C@@H]4O[C@H](CO)[C@@H](O)[C@H](O)[C@H]4O)[C@@H]2CC[C@]1(O[C@@H]1O[C@H](CO)[C@@H](O)[C@H](O[C@@H]2O[C@H](CO)[C@@H](O)[C@H](O)[C@H]2O)[C@H]1O[C@@H]1O[C@H](CO)[C@@H](O)[C@H](O)[C@H]1O)C3` [crystalline Rebaudioside D, Rebaudioside D], the water solubility in data set [2] came to 0.05%. For the same compound, the “Solubility, % (in water) 20° C.” value in data set [2] (water, 20° C.) is on record as 0.05%. In data set [2] (water, 50° C., solution crystallized after cooling to room temperature (20° C.)), the “Solubility, % (in water) 50° C.*” value is 0.2%. Moreover, the “Solubility, % (in water) 100° C.*” value in data set [2] (water, 100° C., solution crystallized after cooling to room temperature (20° C.)) was found to be 0.5%.

Consider `C=C1C[C@@]23CC[C@H]4[C@@](C)(CCC[C@@]4(C)C(=O)O[C@@H]4O[C@H](CO)[C@@H](O)[C@H](O)[C@H]4O)[C@@H]2CC[C@]1(O[C@@H]1O[C@H](CO)[C@@H](O)[C@H](O[C@@H]2O[C@H](CO)[C@@H](O)[C@H](O)[C@H]2O)[C@H]1O[C@@H]1O[C@H](CO)[C@@H](O)[C@H](O)[C@H]1O)C3` [Form 2, Rebaudioside A], for which, in data set [1], the “Rate of dissolution … (in words)” value is on record as “Intermediate” and the “Rate of dissolution in H2O … in 5 minutes” value is given as “(<30% in 5”.

Consider `C=C1C[C@@]23CC[C@H]4[C@@](C)(CCC[C@@]4(C)C(=O)O[C@@H]4O[C@H](CO)[C@@H](O)[C@H](O)[C@H]4O[C@@H]4O[C@H](CO)[C@@H](O)[C@H](O)[C@H]4O)[C@@H]2CC[C@]1(O[C@@H]1O[C@H](CO)[C@@H](O)[C@H](O[C@@H]2O[C@H](CO)[C@@H](O)[C@H](O)[C@H]2O)[C@H]1O[C@@H]1O[C@H](CO)[C@@H](O)[C@H](O)[C@H]1O)C3` [amorphous Reb D, Rebaudioside D], for which the water solubility in data set [2] stood at 0.2%.

Turning to `C=C1C[C@@]23CC[C@H]4[C@@](C)(CCC[C@@]4(C)C(=O)O[C@@H]4O[C@H](CO)[C@@H](O)[C@H](O)[C@H]4O)[C@@H]2CC[C@]1(O[C@@H]1O[C@H](CO)[C@@H](O)[C@H](O[C@@H]2O[C@H](CO)[C@@H](O)[C@H](O)[C@H]2O)[C@H]1O[C@@H]1O[C@H](CO)[C@@H](O)[C@H](O)[C@H]1O)C3` [Form 3, Rebaudioside A], in data set [1], the “Rate of dissolution … (in words)” value is listed as “High” and the “Rate of dissolution in H2O … in 5 minutes” value is given as “(>30% in 5”.

`C=C1C[C@@]23CC[C@H]4[C@@](C)(CCC[C@@]4(C)C(=O)O[C@@H]4O[C@H](CO)[C@@H](O)[C@H](O)[C@H]4O)[C@@H]2CC[C@]1(O[C@@H]1O[C@H](CO)[C@@H](O)[C@H](O[C@@H]2O[C@H](CO)[C@@H](O)[C@H](O)[C@H]2O)[C@H]1O[C@@H]1O[C@H](CO)[C@@H](O)[C@H](O)[C@H]1O)C3` [Rebaudioside A]: the thermodynamic equilibrium solubility in data set [3] was 0.8%.

On to `C=C1C[C@@]23CC[C@H]4[C@@](C)(CCC[C@@]4(C)C(=O)O[C@@H]4O[C@H](CO)[C@@H](O)[C@H](O)[C@H]4O)[C@@H]2CC[C@]1(O[C@@H]1O[C@H](CO)[C@@H](O)[C@H](O[C@@H]2O[C@H](CO)[C@@H](O)[C@H](O)[C@H]2O)[C@H]1O[C@@H]1O[C@H](CO)[C@@H](O)[C@H](O)[C@H]1O)C3` [Form 1, Rebaudioside A], for which the “Rate of dissolution … (in words)” value in data set [1] is “Very low”. In addition, the “Rate of dissolution in H2O at 25° C., amount dissolved in 60 minutes” value in data set [1] (in 60 minutes) is given as “(<0.2% in 60”.

As for `C=C1C[C@@]23CC[C@H]4[C@@](C)(CCC[C@@]4(C)C(=O)O[C@@H]4O[C@H](CO)[C@@H](O)[C@H](O)[C@H]4O[C@@H]4O[C@H](CO)[C@@H](O)[C@H](O)[C@H]4O)[C@@H]2CC[C@]1(O[C@@H]1O[C@H](CO)[C@@H](O)[C@H](O[C@@H]2O[C@H](CO)[C@@H](O)[C@H](O)[C@H]2O)[C@H]1O[C@@H]1O[C@H](CO)[C@@H](O)[C@H](O)[C@H]1O)C3` [Rebaudioside D], the “water solubility when heat is applied” value in data set [2] (heated, upon cooling to room temperature crystallizes back out) is “up to 0.5%”. In data set [2], this compound came in with a water solubility of 0.05%.
